From US20020037902A1 (priority 2000, published 2002)

Experiments:
oligodendrocytes [1] = assay: Kainate-induced death in cultures enriched with oligodendrocytes, counting of living Gal-C (+) cells; format: cell-based, Wistar rats; conditions: 48 hours
Method: Oligodendrocytes were obtained from primary glial cultures of spinal cords according to the slightly modified method described by Saneto et al. (Neurochemistry, a Practical Approach, IRL Press, oxford-Washington, D.C., p 27-63 (1987)). Spinal cords from 1-day old Wistar rats were dissected under sterile conditions and separated from the meninges. Five to ten spinal cords were transferred into PBS (phosphate-buffered saline: NaCl 137 mM, KCl 2.68 mM, Na2HPO4 6.45 mM, KH2PO4 1.47 mM) to which 0.25% of trypsin was added. The enzymatic treatment was stopped by addition of Dubelco's modified Eagle's medium (DMEM) to which 10% of fetal bovine serum was added (FBS). Another dissolution step was carried out by means of a 1 ml pipette, and the cell suspension was filtered. The cells were collected by centrifugation and plated at a density of 1.5−2×10^6 cells/25 cm^2 of culture medium in Dubelco's modified Eagle's medium (DMEM) to which 10% of fetal bovine serum was added. After 3 days in vitro, the cultures were fed daily. When a visible monolayer was obtained, the cultures were stirred for 2 hours at 37° C. at 250 rpm, the culture medium was removed, and the flasks were again stirred for 22 hours. The cell-containing medium was incubated at 37° C. in petri dishes for 1 hour in order for the microglia to become attached to the plastic. The oligodendrocytes were collected by centrifugation, plated at a density of 1.6×10^6/cm^2 and maintained in DMEM containing 10% FBS for 1 or 2 days. The medium was then replaced with L15 medium to which sodium bicarbonate (22 mM), conalbumin (0.1 mg/ml), putrescine (0.1 mM), insulin (5 μg/ml), sodium selenite (31 nM), glucose (20 mM), progesterone (21 nM), penicillin (100 IU/ml), streptomycin (100 μg/ml), and horse serum (2%) were added. The oligodendrocytes rapidly differentiated within 24 to 48 hours into a mature and immature phenotype.
(§1) After 48 hours, measured from the start of treatment, the living oligodendrocytes were counted.
The number of Gal-C (+) oligo-dendrocytes were divided for 2 separate counts of the labeled cells in at least 12 fields of 0.63 mm^2 under a 400X microscope. The values were expressed as the number of cells per cm^2 or as the percentage of the control.
The statistical analyses were carried out using the Student's test (t-test).
The cultures of oligodendrocytes were exposed to concentrations of 0.1 to 1 mM kainate for 48 hours.

oligodendrocytes [2] = assay: Test 3: protective effect of riluzole on oligodendrocyte death induced by kainate; format: cell-based, Wistar rats; conditions: Kainate 1000 alone (no riluzole), 48 hours
Method: Oligodendrocytes were obtained from primary glial cultures of spinal cords according to the slightly modified method described by Saneto et al. (Neurochemistry, a Practical Approach, IRL Press, oxford-Washington, D.C., p 27-63 (1987)). Spinal cords from 1-day old Wistar rats were dissected under sterile conditions and separated from the meninges. Five to ten spinal cords were transferred into PBS (phosphate-buffered saline: NaCl 137 mM, KCl 2.68 mM, Na2HPO4 6.45 mM, KH2PO4 1.47 mM) to which 0.25% of trypsin was added. The enzymatic treatment was stopped by addition of Dubelco's modified Eagle's medium (DMEM) to which 10% of fetal bovine serum was added (FBS). Another dissolution step was carried out by means of a 1 ml pipette, and the cell suspension was filtered. The cells were collected by centrifugation and plated at a density of 1.5−2×10^6 cells/25 cm^2 of culture medium in Dubelco's modified Eagle's medium (DMEM) to which 10% of fetal bovine serum was added. After 3 days in vitro, the cultures were fed daily. […]
as §1
The number of Gal-C (+) oligo-dendrocytes were divided for 2 separate counts of the labeled cells in at least 12 fields of 0.63 mm^2 under a 400X microscope. The values were expressed as the number of cells per cm^2 or as the percentage of the control. […]

C=C(C)[C@H]1CN[C@H](C(=O)O)[C@H]1CC(=O)O [Kainate]
Number of oligodendrocytes % relative to the control ± standard deviation (oligodendrocytes [1]; kainate 0.01 mM): 108.2 ± 25.2 % relative to the control | Number of oligodendrocytes % relative to the control ± standard deviation (oligodendrocytes [1]; kainate 0.1 mM): 76.3 ± 27.9 % relative to the control | Number of oligodendrocytes % relative to the control ± standard deviation (oligodendrocytes [1]; kainate 0.5 mM): 25.3 ± 9.3 % relative to the control | Number of oligodendrocytes % relative to the control ± standard deviation (oligodendrocytes [1]; kainate 1 mM): 22.9 ± 7.1 % relative to the control | Induction of death of the oligodendrocytes through apoptosis (oligodendrocytes [1]; kainate at doses of from about 0.1 mM to about 1 mM): strongly induced death of the oligodendrocytes through apoptosis | Number of oligodendrocytes % relative to the control ± standard deviation (oligodendrocytes [2]): 22.9 ± 7.1 % relative to the control
